Experimental data published in paper PMC10251509, “Ultrafast Fragment Screening Using Photo-Hyperpolarized (CIDNP) NMR” (Journal of the American Chemical Society, 2023).
Where a SMILES comes first, the peptide text is derived from it.

Target: T1, PDZ2 domain of human tyrosine phosphatase 1E (hPTP1E) (Homo sapiens, UniProt Q12923)
T1 construct: the PDZ2 domain of human tyrosine phosphatase 1E (hPTP1E); polyhistidine (N); made in house; host or cells: Escherichia coli BL21 (DE3)
T1 sequence (Q12923 1368-1452 limits assumed): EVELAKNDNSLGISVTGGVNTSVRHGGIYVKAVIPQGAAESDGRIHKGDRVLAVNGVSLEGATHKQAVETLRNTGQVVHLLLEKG
Assay: [15N,1H]-HSQC chemical shift perturbation / titration of peptides with PDZ2 domain
Type: binding
Details: [15N,1H]-HSQC-based titration series, calculated by Titan
Text: To establish a proof of concept, we decided to design and study peptides that bind to the PDZ2 domain of human tyrosine phosphatase comprising a tryptophane at the N-terminus of the peptides for detection by photo-CIDNP since tryptophane is known to be well polarized in the presence of fluorescein.[10],[25] The positive and negative control peptides (i.e., WVSAV and WEKLQT, respectively) were then checked in their binding capacity using [^15N,^1H]-HSQC experiments (Figure 2A,C).
Figure 2 Peptide binding studies of peptides to the PDZ2 domain of the human tyrosine phosphatase by standard chemical shift perturbation 2D NMR experiments and photo-CIDNP 1D ^1H NMR. (A) and (C) 2D [^15N,^1H]-HSQC spectra of the ^15N-labeled PDZ2 domain in the absence (black) and presence (green) of the peptide WVSAV (A) or WEKLQT (C), the experiments were recorded each within ca. 30 min. Photo-CIDNP ^1H 1D NMR spectra of the tryptophane aromatic resonances of (B) WVSAV and (D) WEKLQT in the absence (black lines) and presence (green lines) of the PDZ2 domain of the human tyrosine phosphatase, the experiments were recorded each within ca. 5 s. All of the 1D NMR spectra are single-scan experiments and were recorded with 100 μM peptide, ±100 μM PDZ2 domain at 298 K. The hyperpolarization was triggered by 4 s of light irradiation (450 nm, 1 W) in the presence of 25 μM fluorescein in photo-CIDNP buffer. […]

Kd: 111 ± 3.3 µM
Structure (SMILES): CC(C)[C@H](NC(=O)[C@H](C)NC(=O)[C@H](CO)NC(=O)[C@@H](NC(=O)[C@@H](N)Cc1c[nH]c2ccccc12)C(C)C)C(=O)O [WVSAV] (H-WVSAV-OH)
